Assay results taken from patent publication US20240102068A1, “C-GLYCOSYLTRANSFERASE VARIANTS AND USE THEREOF” (KOREA ADVANCED INSTITUTE OF SCIENCE AND TECHNOLOGY, priority 2021, published 2024).

Target: T1, Gentiana triflora GtCGT (GtUF6CGT1) variant V93Q/Y193F, SEQ ID NO: 61 (Gentiana triflora, UniProt A0A0B6VIJ5, V93Q/Y193F)
T1 sequence (A0A0B6VIJ5 1-477 V93Q/Y193F): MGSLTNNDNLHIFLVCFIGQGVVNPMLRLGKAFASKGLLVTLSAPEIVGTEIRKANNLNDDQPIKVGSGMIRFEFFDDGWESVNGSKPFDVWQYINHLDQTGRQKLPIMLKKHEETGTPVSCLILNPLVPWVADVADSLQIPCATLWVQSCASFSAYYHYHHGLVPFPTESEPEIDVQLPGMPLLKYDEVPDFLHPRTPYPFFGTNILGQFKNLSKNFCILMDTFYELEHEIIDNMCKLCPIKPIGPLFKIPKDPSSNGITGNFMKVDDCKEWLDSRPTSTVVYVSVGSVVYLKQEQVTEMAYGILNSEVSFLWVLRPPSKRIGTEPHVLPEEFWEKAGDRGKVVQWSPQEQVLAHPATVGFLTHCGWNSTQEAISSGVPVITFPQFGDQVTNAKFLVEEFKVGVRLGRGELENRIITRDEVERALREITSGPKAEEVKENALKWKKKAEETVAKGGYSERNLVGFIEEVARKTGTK
Experiment: enzyme kinetics of purified N-terminal 6xHis GtCGT V93Q/Y193F, FK to dcII, UDP-Glo Glycosyltransferase Assay
Type: biochemical
Method: Each plasmid was constructed by PCR amplification of pCDF-GtCGT and pCDF-GtCGTmut using GtCGT_N_His_IV_F and GtCGT_N_His_IV_R primers, followed by blunt-end ligation through DpnI treatment and T4 PNK and T4 ligase treatment. Each of the two plasmids thus constructed was transformed into the E. coli BL21(DE3) strain, followed by seed culture in a test tube containing 10 mL of LB and then culture at 37° C. until OD600 reached 0.8 in a flask containing 500 mL of LB. After treatment with 1 mM IPTG for enzyme expression, additional culture was carried out at 20° C. for 16 hours, and cells were collected by centrifugation and then resuspended in 30 mL of lysis buffer (50 mM NaH2PO4, 0.3 M NaCl, 10 mM imidazole, pH 7.5). The cells were disrupted by ultrasonication and then centrifuged at 10,000 rpm and 4° C. for 40 minutes to obtain a supernatant containing water-soluble proteins. […]
Here, a UDP-Glo Glycosyltransferase Assay Kit (Promega) was used to determine the extent of reaction. Since this kit enables measurement of free UDP generated as a reaction byproduct by luminescence, 200 μL of an enzyme reaction solution containing 0.1 μM enzyme and various concentrations of FK (50 mM HEPES, 0.1 mM UDP-glucose, 5 mM MgCl2, pH 7.5) was allowed to react at 25° C. for 1 hour, 25 μL thereof was taken out, and the amount of emitted light was measured using the kit.

For Cc1c(C(=O)O)c(O)cc2c1C(=O)c1c(O)cc(O)cc1C2=O [FK, flavokermesic acid], the “KM value decreased compared to GtCGT” value (decrease vs wild-type GtCGT) was 19.5% and the “Vmax value increased compared to GtCGT” value (increase vs wild-type GtCGT) was 18.2%.
